# Measurements published in publication PMC10041525, “New Dual Inhibitors of Bacterial Topoisomerases with Broad-Spectrum Antibacterial Activity and In Vivo Efficacy against Vancomycin-Intermediate Staphylococcus aureus” (Journal of Medicinal Chemistry, 2023).
# Like-named read-outs stand apart in the source and are kept apart here.
# Experiments:
# [1] = tested on: E. coli ATCC 25922; test: IHMA QC MIC; format: cell-based; settings: Escherichia coli, read-out: MIC
# [2] = tested on: H. influenzae ATCC 49247; test: IHMA QC MIC; format: cell-based; settings: Haemophilus influenzae, read-out: MIC
# From the text: (§1) Supplement jm2c01905_si_004.xlsx, sheet "QC" | column: MIC [µg/mL]
# [3] = tested on: H. influenzae ATCC 49766; test: IHMA QC MIC; format: cell-based
# From the text: as §1
# [4] = tested on: S. pneumoniae ATCC 49619; test: IHMA QC MIC; format: cell-based
# From the text: as §1
# [5] = tested on: S. pneumoniae ATCC 49619; parameters: method as in earlier work; settings: QC range for S. pneumoniae ATCC 49619, ref CLSI; cited from earlier work
structure (smiles),measurement,setting,value
"CC1(C)S[C@@H]2[C@H](NC(=O)[C@H](N)c3ccccc3)C(=O)N2[C@H]1C(=O)O [Ampicillin, ampicillin]",MIC,"[1]; ATCC25922, QC strain E. coli ATCC 25922, test date 2021-11-11",8 µg/mL
same,MIC,"[1]; ATCC25922, QC strain E. coli ATCC 25922, test date 2021-11-26",4 µg/mL
same,MIC,"[2]; ATCC49247, QC strain H. influenzae ATCC 49247, test date 2021-11-11",4 µg/mL
same,MIC,"[2]; ATCC49247, QC strain H. influenzae ATCC 49247, test date 2021-11-26",4 µg/mL
same,MIC,"[3]; Haemophilus influenzae, ATCC49766, QC strain H. influenzae ATCC 49766, test date 2021-11-11, read-out: MIC",0.12 µg/mL
same,MIC,"[3]; QC strain H. influenzae ATCC 49766, test date 2021-11-26",0.12 µg/mL
same,MIC,"[4]; QC strain S. pneumoniae ATCC 49619, test date 2021-11-26",0.06 µg/mL
same,MIC,"[4]; Streptococcus pneumoniae, ATCC49619, QC strain S. pneumoniae ATCC 49619, test date 2021-11-11, read-out: MIC",0.06 µg/mL
same,"MIC, CLSI Range",[5],"0,06 - 0,25 µg/mL"
